Entries after “also recorded” stand apart in the source; their conditions may differ. Read-outs that look alike come from different tables or passages of the source.
Legend:
[1] = target: T1, full-length AMPK (rat His-α1, β1, γ1) (Rattus norvegicus, UniProt P54645+P80385); assay: MANT-ADP fluorescence displacement (binding) assay, full-length AMPK; details: for thiol-reactivity: binding curves in the presence and absence of DTT: 0-1 mM DTT
T1 construct: Tricistronic vectors encoding full-length AMPK (rat His-α1, β1, γ1); made in house; host or cells: Rosetta cells (E. coli), tricistronic vector, gift of Dr. Uwe Schlattner
Experimental: (§1) Except where otherwise noted, assays were performed with the following conditions: 0.5 μM full-length AMPK (130 kDa) or 0.5 μM regulatory fragment (66.7 kDa), 0.1 μM MANT-ADP, 10 mM Tris-HCl (pH 8), 0.45% DMSO (vehicle and negative control), and 5 μM ADP (positive control). Automated assays were assembled in two steps. First, a NanoQuot (BioTek) was used to dispense 11 μL of master mix (protein, MANT-ADP, and Tris-HCl) per well in black, low volume 384-well plates (Corning-3676). Next, a Biomek NX workstation (Beckman-Coulter, Brea, Calif.) equipped with pintools (VP Scientific, San Diego Calif.) was used to transfer 50 nL of controls (columns 1, 2, 23, and 24) and small molecules (4.5 μM final). Controls and library molecules were transferred from Axygen 384-well rigid PCR plates (Cat no. 321-67-051) at 221× concentration for single-concentration screening. Plates were shaken for 10 minutes prior to reading.
(§2) Fluorescence emission spectra of MANT-ADP were collected using a PerkinElmer EnSpire plate reader with an excitation wavelength of 360 nm. Background fluorescence from protein was subtracted from the raw data prior to plotting MANT-ADP's fluorescence in the presence of protein. Fluorescence detection for assay development and screening was performed on either a BMG Pherastar Plus (360/10 excitation and 460/10 emission filters) or a PerkinElmer EnVision (355/40 excitation and 460/25 emission filters), depending on equipment availability. Relative fluorescence units (RFUs) were recorded at room temperature.
(§3) ScreenAble (ScreenAble Solutions, Chapel Hill, N.C.) high-throughput screening software was utilized for merging screening data and chemical structure, for statistical design of experiments, and hit selection. GraphPad Prism was used for non-linear regression analysis of dose response data.
(§4) Binding assays. Except where otherwise noted, assay assembly and data analysis were completed according to published methods. Binding assays were manually assembled, with the exception of the similarity screen. Automated assembly of the similarity screen was completed according to published methods. Analogs were cherry-picked from a 10 mM Asinex small molecule library and a 0.5 mM kinase focused library, which has been described previously (4). Molecules were screened at a final concentration of 45 and 2.3 μM, respectively.

[2] = target: T2, AMPK regulatory fragment (rat His-α1, 396-548; human β2, 187-272; rat γ1) (Rattus norvegicus, UniProt P80385); assay: MANT-ADP fluorescence displacement (binding) assay, AMPK regulatory fragment; details: inhibition of MANT-ADP fluorescence; for IC50: read-out: IC50 (data in parentheses)
T2 construct: rat His-α1, 396-548; human β2, 187-272; rat γ1; made in house; host or cells: Rosetta cells (E. coli), tricistronic vector, gift of Dr. Steve Gamblin
Experimental: as §1, §2, §3, §4

[3] = test system: phospho-AMPKα in HEK cells; assay: Western blot of treated HEK cells for phospho-AMPKα (Example 3); format: cell-based, human; details: for AMPK modulatory activity / phospho-AMPKα (Western blot, FIG. 7): HEK cells; for phospho-AMPKα (Western blot, FIG. 7): standardized to tubulin; for phospho-AMPK (FIG. 8): human Hek293 cells
Experimental: Approximately 50 compounds will be tested from those identified above using the methods and assays described herein on HEK cells in culture in 6 well plate format for their ability to enter cells and modulate AMPK, initially at 1 μM, 2 μM, 10 μM and 20 μM compound in 0.1% DMSO. […] Molecular biology of the cell 23, 381-389, doi:10.1091/mbc.E11-08-0699 (2012)). Examples of this approach with compounds identified from our preliminary screening that have AMPK modulatory activity are shown in FIG. 7. […] See also FIG. 8. […] By testing under multiple conditions, the likelihood of identifying agonists and antagonists of AMPK activity in vivo, and particularly those that are not dependent on a particular means of altering AMPK activity may increase.
The phosphorylation status of AMPKα with a phospho-specific antibody (against the activation/T-loop threonine 172) (Cell Signaling) will be quantified. […] Molecular biology of the cell 21, 3433-3442, doi:10.1091/mbc.E10-04-0347 (2010)) (FIG. 7). […] In addition, phospho-ACC (Cell Signaling) will be measured by western blot. Cytoplasmic acetyl coenzyme A carboxylase (ACC) is the best known AMPK direct downstream target, and is a rate-limiting enzyme in the energy consuming process of fatty acid synthesis (Davies, S. P. et al. Purification of the AMP-activated protein kinase on ATP-gamma-sepharose and analysis of its subunit structure. European journal of biochemistry/FEBS 223, 351-357 (1994); Carling, D., Zammit, V. A. & Hardie, D. G. A common bicyclic protein kinase cascade inactivates the regulatory enzymes of fatty acid and cholesterol biosynthesis. FEBS Lett 223, 217-222 (1987)). Phospho-ACC will be standardized to both tubulin and total (non-phospho) ACC to ensure we are not measuring changes in total ACC levels. Compounds that modulate phospho-AMPKα and phospho-ACC status in the same direction (both increase or both decrease) will be prioritized over compounds that produce different affects on AMPKα versus ACC phosphorylation for in vitro kinase or phosphatase protection assays.

purified p-AMPK = target: T3, purified p-AMPK (Rattus norvegicus, UniProt P54645+P80385); assay: Kinase assay with purified p-AMPK and GST-ACC peptide; format: biochemical; details: compared to DMSO control
T3 construct: Full-length AMPK intended for use in phosphatase and kinase assays was purified, mixed with GST-CaMKKβ; made in house; host or cells: Rosetta cells (E. coli); phosphorylated in vitro with GST-CaMKKβ, which was then removed on glutathione resin
Experimental: Kinase assays. Assay conditions were adapted from published methods (17). The final assay buffer was comprised of 40 mM Hepes (pH 7.4) 5 mM MgCl2, 200 μM ATP, 75 mM NaCl, 0.01% Triton X-100, 1 mM DTT, and 0.45% DMSO (vehicle). Because some analogs had poor solubility at high concentrations, all analogs and controls were diluted in assay buffer and centrifuged (1 min, 5000 rpm, 4° C.) to remove insoluble matter. GST-ACC peptide and p-AMPK were thawed, diluted in assay buffer, and then added to the supernatant at final concentrations of 900 and 0.1 ng/μL, respectively. Kinase assays were assembled on ice; reactions were allowed to proceed for 30 minutes at room temperature. Reactions were stopped by the addition of loading buffer and 48 mM DTT followed promptly by freezing at −20° C.
(§5) Western analyses. Protein samples were boiled for 15 minutes in loading buffer and DTT prior to SDS-PAGE. Blots for protein-based assays were sequentially incubated with the following: 5% BSA in 1× TBS (1 hr, 22° C.), 1:1000 rabbit anti-human p-AMPK-α antibody or p-ACC antibody (2 hr, 22° C.), and 1:10,000 donkey anti-rabbit secondary antibody (1 hr, 22° C.). Blots for phosphatase assays were probed a second time using 1:100 mouse anti-human total AMPK antibody (overnight, 4° C.; from UNC Antibody Core Facility) followed by 1:10,000 donkey anti-mouse secondary antibody (1 hr, 22° C.). Blots for clarified cell lysates were sequentially probed for p-AMPK (1:500 dilution, overnight at 4° C. or 4 hours at 22° C.), total ACC (1:1000 dilution, overnight at 4° C. or 4 hours at 22° C.), and tubulin (1:10,000 dilution, 1 hr, 22° C.); a parallel set of blots were probed for p-ACC (1:500 dilution, overnight at 4° C. or 4 hours at 22° C.), total AMPK (1:1000 dilution, overnight at 4° C. or 4 hours at 22° C.), and tubulin (1:10,000 dilution, 1 hr, 22° C.). Because phosphorylated and total protein were imaged on separate membranes, the signals were normalized to the internal tubulin signal prior to calculating the ratio of phosphorylated to total protein. Scanning and imaging were completed according to published methods.

[4] = test system: p-ACC levels in HEK cells; assay: Cell-intact assay, p-ACC levels in HEK cells; format: cell-based, human
Experimental: Cell-intact assays. HEK cells were grown in DMEM with 10% FBS and 1% penicillin/streptomycin at 37° C. A subset of plates was serum-starved for 5 hours on the day of the experiment. After 5 hours of serum-starvation, cells were treated with either controls (0.2% DMSO, A-769662, or Compound C) or small molecules in the absence of serum for an additional hour prior to lysis. Another subset of plates was serum-starved for 6 hours and then treated with either controls or small molecules for 1 hour in the presence of 10% FBS. A time course of both AMPK and ACC phosphorylation in HEK cells during serum starvation has already been published (Pirkmajer S, Chibalin A V. Serum starvation: caveat emptor. American journal of physiology Cell physiology. 2011 August; 301(2):C272-9. PubMed PMID: 2161361).
After incubating in the presence of drugs for one hour, cells were washed three times with ice-cold PBS and lysed according to published methods (Kazgan N, Williams T, Forsberg L J, Brenman J E. Identification of a nuclear export signal in the catalytic subunit of AMP-activated protein kinase. Molecular biology of the cell. 2010 Oct. 1; 21(19):3433-42. PubMed PMID: 20685962. Pubmed Central PMCID: 2947478). Lysates were centrifuged at 16,000 g (10 minutes, 4° C.). Clarified supernatant (30 μL) was then transferred to 10 μL 4X loading buffer and 2 μL 1 M DTT. Samples were immediately frozen at −20° C. The concentration of protein in diluted clarified supernatant was calculated using a DC protein assay kit (BioRad) prior to western analyses.
as §5

[5] = full-length AMPK, inhibition of MANT-ADP fluorescence
[6] = full-length AMPK, inhibition of MANT-ADP fluorescence, read-out: IC50

T1 sequence (P54645 with tags, fused parts or gaps limits assumed): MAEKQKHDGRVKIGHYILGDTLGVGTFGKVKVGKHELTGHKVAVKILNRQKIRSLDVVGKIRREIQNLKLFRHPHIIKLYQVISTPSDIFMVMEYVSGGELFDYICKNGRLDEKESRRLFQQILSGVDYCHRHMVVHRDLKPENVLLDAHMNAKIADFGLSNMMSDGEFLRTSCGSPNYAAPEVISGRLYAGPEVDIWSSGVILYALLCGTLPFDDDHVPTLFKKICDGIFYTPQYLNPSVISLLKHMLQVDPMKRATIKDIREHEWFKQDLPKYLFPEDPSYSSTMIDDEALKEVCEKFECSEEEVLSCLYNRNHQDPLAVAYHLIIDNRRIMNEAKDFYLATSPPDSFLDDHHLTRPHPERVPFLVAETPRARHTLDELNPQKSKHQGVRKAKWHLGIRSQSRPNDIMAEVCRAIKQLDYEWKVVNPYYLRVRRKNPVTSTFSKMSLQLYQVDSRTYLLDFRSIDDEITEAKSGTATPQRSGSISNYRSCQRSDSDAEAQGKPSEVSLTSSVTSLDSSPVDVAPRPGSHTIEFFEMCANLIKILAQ
T1 sequence (P80386 whole entry partner): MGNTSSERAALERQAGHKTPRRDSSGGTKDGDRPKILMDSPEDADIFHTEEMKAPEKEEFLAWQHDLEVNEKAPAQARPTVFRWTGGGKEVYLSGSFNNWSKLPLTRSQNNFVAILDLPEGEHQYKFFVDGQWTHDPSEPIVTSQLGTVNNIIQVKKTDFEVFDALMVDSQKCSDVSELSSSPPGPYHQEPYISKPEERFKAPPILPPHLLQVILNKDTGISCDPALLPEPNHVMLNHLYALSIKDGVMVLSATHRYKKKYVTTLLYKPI
T1 sequence (P80385 whole entry): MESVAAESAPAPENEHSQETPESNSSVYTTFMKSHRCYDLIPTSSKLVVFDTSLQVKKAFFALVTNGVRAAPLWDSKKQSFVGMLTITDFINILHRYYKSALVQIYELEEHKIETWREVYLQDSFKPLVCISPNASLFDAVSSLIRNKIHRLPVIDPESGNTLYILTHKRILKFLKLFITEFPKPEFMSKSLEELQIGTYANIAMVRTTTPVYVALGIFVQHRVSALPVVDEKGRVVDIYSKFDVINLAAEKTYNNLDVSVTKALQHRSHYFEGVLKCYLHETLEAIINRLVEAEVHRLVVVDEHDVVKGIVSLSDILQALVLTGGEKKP
T2 sequence (P54645 407-559 partner limits assumed): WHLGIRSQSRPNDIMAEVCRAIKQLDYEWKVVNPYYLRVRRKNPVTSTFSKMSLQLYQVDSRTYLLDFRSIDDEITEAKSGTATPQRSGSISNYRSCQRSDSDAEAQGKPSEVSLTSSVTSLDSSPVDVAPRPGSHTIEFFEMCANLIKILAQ
T2 sequence (O43741 187-272 partner limits assumed): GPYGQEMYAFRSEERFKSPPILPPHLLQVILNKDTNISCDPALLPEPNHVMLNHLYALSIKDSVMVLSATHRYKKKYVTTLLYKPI
T2 sequence (P80385 whole entry, the tested form may be a part): as the sequence (P80385 whole entry) above
T3 sequence (P54645 with tags, fused parts or gaps limits assumed): as the sequence (P54645 with tags, fused parts or gaps limits assumed) above
T3 sequence (P80386 whole entry partner): as the sequence (P80386 whole entry partner) above
T3 sequence (P80385 whole entry): as the sequence (P80385 whole entry) above

SMILES	Hill slope [1, 5]	IC50 [1, 6]	Hill slope (data in parentheses) [2]	IC50 [2]	thiol-reactivity: binding curves in the presence and absence of DTT [1]	Hill slope ([1]; full-length AMPK, Example 4)	IC50 ([1]; full-length AMPK, Example 4, read-out: binding IC50)	AMPK modulatory activity [3]	phospho-AMPKα (Western blot, FIG. 7) [3]	phospho-AMPK (FIG. 8) [3]	activity of purified p-AMPK (phosphorylation of GST-ACC peptide), dose response (purified p-AMPK)	p-ACC levels, serum-treated HEK cells ([4]; 10% serum)	p-ACC levels, serum-starved HEK cells ([4]; serum-starved, 1 hour treatment)	IC50 ([1]; 1 mM DTT, read-out: extrapolated IC50 in the presence of DTT)
COc1cc(C(=O)/C=C/c2cc(O)c(O)c(Cl)c2)cc(OC)c1OC [Example Z64358107]	1.1	0.3 µM	2.6	0.2 µM	–	–	–	–	–	–	–	–	–	–
Cc1ccc(-c2ccc(/C=C3\SC(=S)N(CC(=O)O)C3=O)o2)cc1 [STK740822, 2-{(5Z)-5-{[5-(4-Methylphenyl)furan-2-yl]methylidene}-4-oxo-2-sulfanylidene-1,3-thiazolidin-3-yl}acetic acid]	1.4 (1.4)	2.9 µM	1.4 (1.4)	1.6 µM	not thiol-reactive	1.2	9 µM	activating activity	increased	increase	–	–	–	–
O=C1/C(=C/c2ccc(-c3ccc(F)cc3)o2)SC(=S)N1CCS(=O)(=O)O [STK823366, 2-[(5Z)-5-{[5-(4-fluorophenyl)furan-2-yl]methylidene}-4-oxo-2-sulfanylidene-1,3-thiazolidin-3-yl]ethane-1-sulfonic acid]	–	–	–	–	–	–	–	–	–	–	dose-dependently inhibited	decreased phosphorylation; also recorded: decreases	decreased phosphorylation	–
O=C1Nc2ccc(Br)cc2/C1=C1/SC(=S)N(C(Cc2ccccc2)C(=O)O)C1=O (centres unmarked) [STL035166]	1.3	2.7 µM	1.4	1.5 µM	dramatically different dose response curve	–	–	inhibitory activity	decreased	increase	–	–	–	~250 µM
